The record followed here is US20250136607A1 (REGOR PHARMACEUTICALS, INC., priority 2021, published 2025).

The target in assay [1] is Protein arginine deiminase 4 (PAD4) (Homo sapiens, UniProt Q9UM07). Nature of the assay: PAD4 ammonia release assay. Type of assay: biochemical. The settings on record: for IC50: PAD4 ammonia release assay, BAEE substrate, 60 min at RT, read-out: Average IC50 Abs. An outline of the steps:
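Ammonia release from BAEE substrate (2× mix 600 μM) was measured after 60 min at RT, following 15 min enzyme–compound preincubation (PAD4 2× 20 nM; pH 8.0 HEPES, 2 mM CaCl2, TCEP; 1.25% DMSO). Detection used OPA/DTT/EDTA for 120 min. % inhibition was taken versus reference-compound and DMSO controls; IC50 by four-parameter logistic fit.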

The subject of assay [2] is Citrullinated Histone H3 in dHL-60 cells (differentiated HL-60). Kind of assay: dHL-60 Cit-H3 ELISA assay. Conditions: Homo sapiens, read-out: Average IC50 Abs. It counts as cell-based, human. An outline of the steps: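 HL-60 cells differentiated 72 h with DMF, plated at 1×10^5/well, pretreated 30 min with compound (8-point 3-fold series, 0.2% DMSO), then stimulated 3 h at 37 °C with 25 μM A23187 plus S7 nuclease. Supernatant citrullinated H3 quantified by HRP ELISA at 450 nm; IC50 by four-parameter fit.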

Setting [3] is: HL-60, 3 h, stimulation with 25 μM A23187 for 3 h.

Each structure is given as a SMILES string. Where two headings read alike, the source gives them in different places.

What is called IC50 is the concentration needed to halve the response being measured.

Protein arginine deiminase 4 (PAD4), sequence (Q9UM07 whole entry): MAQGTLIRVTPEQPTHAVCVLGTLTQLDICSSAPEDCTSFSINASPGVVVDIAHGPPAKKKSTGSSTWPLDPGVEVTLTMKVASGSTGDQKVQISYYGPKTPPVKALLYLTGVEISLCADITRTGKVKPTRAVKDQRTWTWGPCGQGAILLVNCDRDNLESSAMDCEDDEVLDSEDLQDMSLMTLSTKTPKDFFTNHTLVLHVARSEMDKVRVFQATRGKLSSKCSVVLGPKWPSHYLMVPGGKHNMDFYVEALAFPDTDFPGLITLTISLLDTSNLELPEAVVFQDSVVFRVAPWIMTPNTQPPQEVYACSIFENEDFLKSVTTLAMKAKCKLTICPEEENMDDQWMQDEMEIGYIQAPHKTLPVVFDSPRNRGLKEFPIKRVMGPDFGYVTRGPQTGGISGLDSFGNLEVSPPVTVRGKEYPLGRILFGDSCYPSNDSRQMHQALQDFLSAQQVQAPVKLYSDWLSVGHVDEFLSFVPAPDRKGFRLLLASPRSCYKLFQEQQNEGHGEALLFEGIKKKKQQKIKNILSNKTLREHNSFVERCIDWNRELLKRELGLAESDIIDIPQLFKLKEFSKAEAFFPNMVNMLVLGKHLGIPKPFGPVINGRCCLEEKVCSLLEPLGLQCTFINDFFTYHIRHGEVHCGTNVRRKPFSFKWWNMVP

As for `CCn1cc(Cn2c(-c3cc4cccc5c4n3CCN5)nc3cc(C(=O)N4C[C@H](N)C[C@@H](F)C4)cc(F)c32)cn1` [Example 40, ((3R,5R)-3-amino-5-fluoropiperidin-1-yl)(2-(2,3-dihydro-1H-pyrrolo[1,2,3-de]quinoxalin-5-yl)-1-((1-ethyl-1H-pyrazol-4-yl)methyl)-7-fluoro-1H-benzo[d]imidazol-5-yl)methanone], the figures for the IC50 in assay [1] and in assay [2] (setting [3]) were 100 to 500 nM and 500 to 5000 nM, respectively.
For the molecule `COc1cc(C(=O)N2C[C@H](N)C[C@@H](F)C2)cc2nc(-c3cc4cccc5c4n3CCN5CCCO)n(C)c12` [Example 13], the IC50 in assay [1] is 100 to 500 nM; in assay [2] (setting [3]), 500 to 5000 nM.
Consider `CCn1cc(Cn2c(-c3cc4cccc5c4n3CCN5CCCO)nc3cc(C(=O)N4C[C@H](N)C[C@@H](F)C4)cc(OC)c32)cn1` [Example 34, ((3R,5R)-3-amino-5-fluoropiperidin-1-yl)(1-((1-ethyl-1H-pyrazol-4-yl)methyl)-2-(1-(3-hydroxypropyl)-2,3-dihydro-1H-pyrrolo[1,2,3-de]quinoxalin-5-yl)-7-methoxy-1H-benzo[d]imidazol-5-yl)methanone], for which the concentration for half-maximal inhibition (IC50) was not above 100 nM in assay [1] and 500 to 5000 nM in assay [2] (HL-60, stimulation with 25 μM A23187 for 3 h).
Turning to `CCC1CN(CCCO)c2cccc3cc(-c4nc5cc(C(=O)N6C[C@H]7CC[C@@H]6[C@@H]7N)cc(F)c5n4C)n1c23` (stereo partly drawn) [Example 69, ((1R,4R,7R)-7-amino-2-azabicyclo[2.2.1]heptan-2-yl)(2-(3-ethyl-1-(3-hydroxypropyl)-2,3-dihydro-1H-pyrrolo[1,2,3-de]quinoxalin-5-yl)-7-fluoro-1-methyl-1H-benzo[d]imidazol-5-yl)methanone], the half-inhibitory concentration (IC50) in assay [1] and in assay [2] (setting [3]) was not above 100 nM in each case.
As for `Cn1c(-c2cc3ccc(C#N)c4c3n2C(C2CC2)CN4)nc2cc(C(=O)N3C[C@H]4CC[C@@H]3[C@@H]4N)cc(F)c21` (mixture of isomers) [Example 114, 5-(5-((1R,4R,7R)-7-amino-2-azabicyclo[2.2.1]heptane-2-carbonyl)-7-fluoro-1-methyl-1H-benzo[d]imidazol-2-yl)-3-cyclopropyl-2,3-dihydro-1H-pyrrolo[1,2,3-de]quinoxaline-9-carbonitrile], the IC50 in assay [1] and in assay [2] (setting [3]) was not above 100 nM in each case.
As for `CC(=O)N1CCc2c(ccc3cc(-c4nc5cc(C(=O)N6C[C@H]7CC[C@@H]6[C@@H]7N)cc(F)c5n4C)n(CC4CC4)c23)C1` [Example 156, 1-(2-(5-((1R,4R,7R)-7-amino-2-azabicyclo[2.2.1]heptane-2-carbonyl)-7-fluoro-1-methyl-1H-benzo[d]imidazol-2-yl)-1-(cyclopropylmethyl)-1,6,8,9-tetrahydro-7H-pyrrolo[2,3-f]isoquinolin-7-yl)ethan-1-one], the concentration for half-maximal inhibition (IC50) in assay [1] and in assay [2] (setting [3]) was not above 100 nM in each case.
With `Cn1c(-c2cc3ccc4cc[nH]c4c3n2CC2CC2)nc2cc(C(=O)N3C[C@H]4CC[C@@H]3[C@@H]4N)cc(F)c21` [Example 148, ((1R,4R,7R)-7-amino-2-azabicyclo[2.2.1]heptan-2-yl)(2-(1-(cyclopropylmethyl)-1,8-dihydropyrrolo[3,2-g]indol-2-yl)-7-fluoro-1-methyl-1H-benzo[d]imidazol-5-yl)methanone], the half-inhibitory concentration (IC50) in assay [1] and in assay [2] (setting [3]) was not above 100 nM throughout.
As for `CC[C@H]1CNc2cccc3cc(-c4nc5cc(C(=O)N6C[C@H]7CC[C@@H]6[C@@H]7N)cc(F)c5n4C)n1c23` [Example 74, ((1R,4R,7R)-7-amino-2-azabicyclo[2.2.1]heptan-2-yl)(2-((S)-3-ethyl-2,3-dihydro-1H-pyrrolo[1,2,3-de]quinoxalin-5-yl)-7-fluoro-1-methyl-1H-benzo[d]imidazol-5-yl)methanone], the half-maximal inhibitory concentration (IC50) in assay [1] and in assay [2] (setting [3]) was not above 100 nM in each case. Further, the “relative potency of separated isomers in the PAD4 biochemical assay” value in assay [1] (SFC-separated stereoisomer pairs) is “more potent than Example 73”.
In the case of `CCC1CN(CCC(C)(C)O)c2cccc3cc(-c4nc5cc(C(=O)N6C[C@H]7CC[C@@H]6[C@@H]7N)cc(F)c5n4C)n1c23` (stereo partly drawn) [Example 88, ((1R,4R,7R)-7-amino-2-azabicyclo[2.2.1]heptan-2-yl)(2-(3-ethyl-1-(3-hydroxy-3-methylbutyl)-2,3-dihydro-1H-pyrrolo[1,2,3-de]quinoxalin-5-yl)-7-fluoro-1-methyl-1H-benzo[d]imidazol-5-yl)methanone], the IC50 in assay [1] and in assay [2] (setting [3]) was 100 to 500 nM in each case.
For the molecule `CCC1CN(CCCOC)c2cccc3cc(-c4nc5cc(C(=O)N6C[C@H]7CC[C@@H]6[C@@H]7N)cc(F)c5n4CC)n1c23` (stereo partly drawn) [Example 100, ((1R,4R,7R)-7-amino-2-azabicyclo[2.2.1]heptan-2-yl)(1-ethyl-2-(3-ethyl-1-(3-methoxypropyl)-2,3-dihydro-1H-pyrrolo[1,2,3-de]quinoxalin-5-yl)-7-fluoro-1H-benzo[d]imidazol-5-yl)methanone], the IC50 in assay [1] and in assay [2] (setting [3]) was 100 to 500 nM in each case.
On to `Cn1c(-c2cc3ccc4c(c3n2CC2CC2)NCC4)nc2cc(C(=O)N3C[C@H]4CC[C@@H]3[C@@H]4N)cc(F)c21` [Example 147, ((1R,4R,7R)-7-amino-2-azabicyclo[2.2.1]heptan-2-yl)(2-(1-(cyclopropylmethyl)-1,6,7,8-tetrahydropyrrolo[3,2-g]indol-2-yl)-7-fluoro-1-methyl-1H-benzo[d]imidazol-5-yl)methanone], for which the concentration for half-maximal inhibition (IC50) in assay [1] was not above 100 nM; in assay [2] (setting [3]), 100 to 500 nM.
